Measured values as given in ChEMBL document CHEMBL4425093, “Picrasidine N Is a Subtype-Selective PPARβ/δ Agonist” (J Nat Prod, 2016).
Activity calls are given as the source filed them. The rule behind the calls is not given here.

Columns and labels:
[1] = target: T1, Peroxisome proliferator-activated receptor delta (Homo sapiens) (UniProt Q03181); assay: Agonist activity at GAL4-DBD fused human PPARbeta/delta-LBD (136 to 441 residues) expressed in human HepG2 cells after 24 hrs by dual luciferase reporter gene assay; type: cell-based
T1 sequence (whole entry): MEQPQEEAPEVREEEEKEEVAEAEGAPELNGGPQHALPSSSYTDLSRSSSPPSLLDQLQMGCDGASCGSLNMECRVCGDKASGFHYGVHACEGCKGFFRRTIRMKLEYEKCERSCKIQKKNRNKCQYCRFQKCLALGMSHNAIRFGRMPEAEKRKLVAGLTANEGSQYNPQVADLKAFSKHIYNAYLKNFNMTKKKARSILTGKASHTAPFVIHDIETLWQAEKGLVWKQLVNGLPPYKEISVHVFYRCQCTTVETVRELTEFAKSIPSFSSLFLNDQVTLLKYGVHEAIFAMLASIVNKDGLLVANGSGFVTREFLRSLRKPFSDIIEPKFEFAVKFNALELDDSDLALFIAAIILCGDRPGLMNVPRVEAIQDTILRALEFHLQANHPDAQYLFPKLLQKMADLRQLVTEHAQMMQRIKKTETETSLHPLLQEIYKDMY

[2] = target: T2, Peroxisome proliferator-activated receptor gamma (Homo sapiens) (UniProt P37231); assay: Agonist activity at GAL4-DBD fused human PPARgamma-LBD (157 to 475 residues) expressed in human HepG2 cells at 0.1 to 20 uM after 24 hrs by dual luciferase reporter gene assay; type: cell-based
T2 sequence (whole entry): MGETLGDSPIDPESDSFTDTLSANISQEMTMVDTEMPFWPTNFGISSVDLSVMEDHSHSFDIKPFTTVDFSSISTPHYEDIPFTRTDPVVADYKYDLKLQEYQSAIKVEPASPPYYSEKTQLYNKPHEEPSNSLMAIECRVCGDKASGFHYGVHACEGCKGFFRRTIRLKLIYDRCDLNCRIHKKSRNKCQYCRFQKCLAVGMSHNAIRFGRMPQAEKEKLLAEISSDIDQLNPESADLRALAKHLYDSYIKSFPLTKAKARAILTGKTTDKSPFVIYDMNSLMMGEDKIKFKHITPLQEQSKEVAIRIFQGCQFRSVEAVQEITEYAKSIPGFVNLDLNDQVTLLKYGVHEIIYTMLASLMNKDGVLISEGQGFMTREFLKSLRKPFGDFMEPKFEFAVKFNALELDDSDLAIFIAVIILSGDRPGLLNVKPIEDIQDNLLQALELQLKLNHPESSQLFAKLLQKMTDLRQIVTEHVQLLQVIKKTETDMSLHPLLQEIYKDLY

[3] = target: T1, Peroxisome proliferator-activated receptor delta (Homo sapiens); assay: Agonist activity PPARbeta/delta in human PC3 cells assessed as induction of ANGPTL4 mRNA expression at 10 uM incubated for 24 hrs by qRT-PCR method; type: cell-based
[4] = target: T1, Peroxisome proliferator-activated receptor delta (Homo sapiens); assay: Agonist activity PPARbeta/delta in human MCF7 cells assessed as induction of ANGPTL4 mRNA expression at 10 uM incubated for 24 hrs by qRT-PCR method; type: cell-based
[5] = target: T1, Peroxisome proliferator-activated receptor delta (Homo sapiens); assay: Agonist activity at PPARbeta/delta in human HepG2 cells assessed as induction of ANGPTL4 mRNA expression incubated for 24 hrs by qRT-PCR method; type: cell-based
HepG2 [6] = assay: Induction of PPRE transcriptional activation in human HepG2 cells at 10 uM incubated for 24 hrs by dual luciferase reporter gene assay; type: functional, cell-based
HepG2 [7] = assay: Upregulation of ANGPTL4 mRNA expression in human HepG2 cells transfected with PPARbeta/delta siRNA at 10 uM after 24 hrs by qRT-PCR method; type: functional, cell-based
[8] = target: T1, Peroxisome proliferator-activated receptor delta (Homo sapiens); assay: Agonist activity at full length human N-terminal Myc-tagged PPARbeta/delta expressed in human HepG2 cells coexpressing RXRalpha assessed as transcriptional activation of PPRE incubated for 24 hrs by dual luciferase reporter gene assay; type: cell-based
[9] = target: T3, Peroxisome proliferator-activated receptor alpha (Homo sapiens) (UniProt Q07869); assay: Agonist activity at GAL4-DBD fused human PPARalpha-LBD (159 to 468 residues) expressed in human HepG2 cells at 0.1 to 20 uM after 24 hrs by dual luciferase reporter gene assay; type: cell-based
T3 sequence (whole entry): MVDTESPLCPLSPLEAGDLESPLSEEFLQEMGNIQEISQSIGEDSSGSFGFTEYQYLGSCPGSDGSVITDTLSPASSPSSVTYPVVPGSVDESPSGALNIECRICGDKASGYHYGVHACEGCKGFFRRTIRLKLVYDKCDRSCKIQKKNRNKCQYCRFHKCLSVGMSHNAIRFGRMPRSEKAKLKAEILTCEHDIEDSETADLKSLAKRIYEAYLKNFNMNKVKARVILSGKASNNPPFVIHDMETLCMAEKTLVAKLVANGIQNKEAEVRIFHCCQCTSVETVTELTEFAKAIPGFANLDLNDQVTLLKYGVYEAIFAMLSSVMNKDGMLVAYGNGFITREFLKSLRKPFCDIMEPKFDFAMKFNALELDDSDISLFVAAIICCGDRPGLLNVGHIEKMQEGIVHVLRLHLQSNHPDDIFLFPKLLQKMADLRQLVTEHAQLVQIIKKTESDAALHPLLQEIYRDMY

[10] = target: T1, Peroxisome proliferator-activated receptor delta (Homo sapiens); assay: Agonist activity at GAL4-DBD fused human PPARbeta/delta-LBD (136 to 441 residues) expressed in human HepG2 cells at 10 uM by luciferase reporter gene based mammalian one hybrid assay; type: cell-based

COc1cnc(CCn2ccc3c4n(c(=O)c(=O)cc2-4)c2ccccc32)c2c1c1ccccc1n2OC
Activity [1]: Dose-dependent effect | Activity [2]: Active | Activity [3]: inactive | Activity [4]: Active | Activity [5]: Dose-dependent effect | Activity (HepG2 [6]): Active | Activity (HepG2 [7]): inactive | Activity [8]: Dose-dependent effect | Activity [9]: inactive

Cc1cc(SCc2sc(-c3ccc(C(F)(F)F)c(F)c3)nc2C)ccc1OCC(=O)O
Activity (HepG2 [6]): Active | Activity (HepG2 [7]): inactive

COc1cccc2c1[nH]c1c(CCn3ccc4c5n(c(=O)c(=O)cc3-5)c3ccccc43)ncc(OC)c12
Activity [10]: inactive

CCCCn1ccc2c3n(c(=O)c(=O)cc1-3)c1ccccc21
Activity [10]: inactive
